Measured values as given in patent US11214594B2, “Antimicrobial peptide having synergistic antibacterial effect with antibiotics on multidrug resistant bacteria, and use thereof” (priority 2016, dated 2022).
In brackets after ≈: the same amount, converted by molar mass. Where a SMILES comes first, the peptide text is derived from it.

Experiments:
A. baumannii [1] = assay: MIC of antibiotic during combined treatment with antimicrobial peptide; assay type: cell-based, Acinetobacter baumannii; conditions: for Synergistic effect of antibacterial activity with existing antibiotics compared with PapMA-1: A. baumannii and MDRAB 12035; for Antibiotic MIC, Erythromycin / Antibiotic MIC, Linezolid / Antibiotic MIC, Vancomycin: A. baumannii
How it was run: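 First, antibiotic solution is diluted with MH medium; next, the dilution is dispensed into wells containing peptide; finally, the orientation is swapped and MIC of each mixture determined.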

A. baumannii [2] = assay: microbe, parasite or virus in culture; assay type: cell-based, Acinetobacter baumannii
How it was run: (§1)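 Peptides were serially diluted twofold in Mueller-Hinton medium and combined 1:1 with bacterial suspensions prepared at 2×10^6 CFU. Readout was the minimal inhibitory concentration, i.e. the lowest concentration with no growth.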

MDRAB 12035 = assay: microbe, parasite or virus in culture; assay type: cell-based, Acinetobacter baumannii
How it was run: as §1

S. typhimurium = assay: microbe, parasite or virus in culture; assay type: cell-based, Salmonella typhimurium
How it was run: as §1

gram-negative bacteria = assay: MIC, summary statements for gram-negative bacteria; assay type: cell-based; conditions: most of the gram-negative bacteria
Description: For the antibacterial activity, a minimal inhibitory concentration (MIC) of a peptide in which fungus bodies were not split in an MH medium with sufficient nutrients was measured.
Specifically, the strains described in the following [Table 2] were purchased and diluted with an MH medium such that the number of bacteria was 2×10^6 colony-forming units (CFUs), 100 μl of each of the diluted strains was aliquoted into a 96-well microtiter plate, and then 100 μl of a peptide solution diluted with the MH medium (solution diluted stepwise at 2: 1) was added to each well.

S. aureus = assay: microbe, parasite or virus in culture; assay type: cell-based, Staphylococcus aureus
How it was run: as §1

MDREC 1229 = assay: MIC of antibiotic during combined treatment with antimicrobial peptide; assay type: cell-based, Escherichia coli
How it was run: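 Broth microdilution in MH medium; strains were diluted to 2×10^6 CFU per ml before plating. Peptide was serially diluted stepwise at 2:1 starting from its MIC, and MH-diluted antibiotic was then added to determine MIC. The reversed arrangement was also tested.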

[3] = combined with peptide at 1 μg/ml
[4] = combined with peptide at 2 μg/ml
[5] = combined with peptide at 4 μg/ml
[6] = combined with peptide at 6 μg/ml
[7] = combined with peptide at 8 μg/ml
[8] = combined with peptide at 16 μg/ml
[9] = combined with peptide at 32 μg/ml
[10] = combined with peptide at 64 μg/ml
[11] = peptide treatment concentration 1 μg/ml
[12] = peptide treatment concentration 2 μg/ml
[13] = peptide treatment concentration 4 μg/ml
[14] = peptide treatment concentration 6 μg/ml
[15] = peptide treatment concentration 8 μg/ml
[16] = peptide treatment concentration 16 μg/ml
[17] = peptide treatment concentration 32 μg/ml
[18] = peptide treatment concentration 64 μg/ml

CC[C@H](C)[C@H](NC(=O)[C@H](CCCCN)NC(=O)[C@H](Cc1c[nH]c2ccccc12)NC(=O)[C@@H](N)CCCNC(=N)N)C(=O)N[C@@H](Cc1ccccc1)C(=O)N[C@@H](CCCCN)C(=O)N[C@@H](CCCCN)C(=O)N[C@H](C(=O)N1CCC[C@H]1C(=O)N[C@@H](CCCCN)C(=O)N[C@@H](CC(C)C)C(=O)N[C@@H](CC(C)C)C(=O)N[C@@H](Cc1c[nH]cn1)C(=O)N[C@@H](CO)C(=O)N[C@@H](CC(C)C)C(=O)N[C@@H](CCCCN)C(=O)N[C@@H](CCCCN)C(=O)N[C@@H](Cc1ccccc1)C(N)=O)[C@@H](C)CC [PapMA-8, RWK IFK KIP KLL HSL KKF-NH2] (H-RWKIFKKIPKLLHSLKKF-NH2; N-terminus assumed)
Synergistic effect of antibacterial activity with existing antibiotics compared with PapMA-1 (A. baumannii [1]): higher level than the PapMA-1 peptide | Antibiotic MIC, Erythromycin (A. baumannii [1]; [3]): 32 µg/mL | Antibiotic MIC, Linezolid (A. baumannii [1]; [3]): >128 µg/mL | Antibiotic MIC, Vancomycin (A. baumannii [1]; [3]): >128 µg/mL | Antibiotic MIC, Erythromycin (A. baumannii [1]; [4]): 8 µg/mL | Antibiotic MIC, Linezolid (A. baumannii [1]; [4]): 64 µg/mL | Antibiotic MIC, Vancomycin (A. baumannii [1]; [4]): >128 µg/mL | Antibiotic MIC, Erythromycin (A. baumannii [1]; [5]): 4 µg/mL | Antibiotic MIC, Linezolid (A. baumannii [1]; [5]): 32 µg/mL | Antibiotic MIC, Vancomycin (A. baumannii [1]; [5]): 32 µg/mL | Antibiotic MIC, Erythromycin (A. baumannii [1]; [6]): 4 µg/mL | Antibiotic MIC, Linezolid (A. baumannii [1]; [6]): 16 µg/mL | Antibiotic MIC, Vancomycin (A. baumannii [1]; [6]): 16 µg/mL | Antibiotic MIC, Erythromycin (A. baumannii [1]; [7]): 0.25 µg/mL | Antibiotic MIC, Linezolid (A. baumannii [1]; [7]): 4 µg/mL | Antibiotic MIC, Vancomycin (A. baumannii [1]; [7]): 8 µg/mL | Antibiotic MIC, Erythromycin (A. baumannii [1]; [8]): 0.125 µg/mL | Antibiotic MIC, Linezolid (A. baumannii [1]; [8]): 1 µg/mL | Antibiotic MIC, Vancomycin (A. baumannii [1]; [8]): 4 µg/mL | Antibiotic MIC, Erythromycin (A. baumannii [1]; [9]): 0 µg/mL | Antibiotic MIC, Linezolid (A. baumannii [1]; [9]): 0 µg/mL | Antibiotic MIC, Vancomycin (A. baumannii [1]; [9]): 0 µg/mL | Antibiotic MIC, Erythromycin (A. baumannii [1]; [10]): 0 µg/mL | Antibiotic MIC, Linezolid (A. baumannii [1]; [10]): 0 µg/mL | Antibiotic MIC, Vancomycin (A. baumannii [1]; [10]): 0 µg/mL | Minimal inhibitory concentration MIC (A. baumannii [2]): 32 µg/mL (≈ 13.9 µM) | Peptide MIC, peptide alone (A. baumannii [2]): 32 µg/mL | Minimal inhibitory concentration MIC (MDRAB 12035): 64 µg/mL (≈ 27.7 µM) | Peptide MIC, peptide alone (MDRAB 12035): 64 µg/mL | Minimal inhibitory concentration MIC (S. typhimurium): 32 µg/mL (≈ 13.9 µM) | Antibacterial activity relative to PapMA-1, PapMA-2, PapMA-3 and PapMA-4 (gram-negative bacteria): same or higher | Minimal inhibitory concentration MIC (S. aureus): >128 µg/mL | Antibiotic MIC, Erythromycin (MDREC 1229; [11]): >128 µg/mL | Antibiotic MIC, Linezolid (MDREC 1229; [11]): >128 µg/mL | Antibiotic MIC, Vancomycin (MDREC 1229; [11]): >128 µg/mL | Antibiotic MIC, Erythromycin (MDREC 1229; [12]): 64 µg/mL | Antibiotic MIC, Linezolid (MDREC 1229; [12]): >128 µg/mL | Antibiotic MIC, Vancomycin (MDREC 1229; [12]): >128 µg/mL | Antibiotic MIC, Erythromycin (MDREC 1229; [13]): 8 µg/mL | Antibiotic MIC, Linezolid (MDREC 1229; [13]): 128 µg/mL | Antibiotic MIC, Vancomycin (MDREC 1229; [13]): >128 µg/mL | Antibiotic MIC, Erythromycin (MDREC 1229; [14]): 4 µg/mL | Antibiotic MIC, Linezolid (MDREC 1229; [14]): 32 µg/mL | Antibiotic MIC, Vancomycin (MDREC 1229; [14]): >128 µg/mL | Antibiotic MIC, Erythromycin (MDREC 1229; [15]): 1 µg/mL | Antibiotic MIC, Linezolid (MDREC 1229; [15]): 32 µg/mL | Antibiotic MIC, Vancomycin (MDREC 1229; [15]): 32 µg/mL | Antibiotic MIC, Erythromycin (MDREC 1229; [16]): 0.5 µg/mL | Antibiotic MIC, Linezolid (MDREC 1229; [16]): 16 µg/mL | Antibiotic MIC, Vancomycin (MDREC 1229; [16]): 16 µg/mL | Antibiotic MIC, Erythromycin (MDREC 1229; [17]): 0.125 µg/mL | Antibiotic MIC, Linezolid (MDREC 1229; [17]): 8 µg/mL | Antibiotic MIC, Vancomycin (MDREC 1229; [17]): 8 µg/mL | Antibiotic MIC, Erythromycin (MDREC 1229; [18]): 0 µg/mL | Antibiotic MIC, Linezolid (MDREC 1229; [18]): 0 µg/mL | Antibiotic MIC, Vancomycin (MDREC 1229; [18]): 0 µg/mL

CC[C@H](C)[C@H](NC(=O)[C@H](CCCCN)NC(=O)[C@H](Cc1c[nH]c2ccccc12)NC(=O)[C@@H](N)CCCNC(=N)N)C(=O)N[C@@H](Cc1ccccc1)C(=O)N[C@@H](CCCCN)C(=O)N[C@@H](CCCCN)C(=O)N[C@H](C(=O)N1CCC[C@H]1C(=O)N[C@@H](CCCCN)C(=O)N[C@@H](CC(C)C)C(=O)N[C@@H](CC(C)C)C(=O)N[C@@H](Cc1c[nH]cn1)C(=O)N[C@@H](CO)C(=O)N[C@@H](Cc1ccccc1)C(=O)N[C@@H](CCCCN)C(=O)N[C@@H](CCCCN)C(=O)N[C@@H](Cc1ccccc1)C(N)=O)[C@@H](C)CC [PapMA-7, RWK IFK KIP KLL HSF KKF-NH2] (H-RWKIFKKIPKLLHSFKKF-NH2; N-terminus assumed)
Synergistic effect of antibacterial activity with existing antibiotics compared with PapMA-1 (A. baumannii [1]): higher level than the PapMA-1 peptide | Antibiotic MIC, Erythromycin (A. baumannii [1]; [3]): 16 µg/mL | Antibiotic MIC, Linezolid (A. baumannii [1]; [3]): 128 µg/mL | Antibiotic MIC, Vancomycin (A. baumannii [1]; [3]): >128 µg/mL | Antibiotic MIC, Erythromycin (A. baumannii [1]; [4]): 8 µg/mL | Antibiotic MIC, Linezolid (A. baumannii [1]; [4]): 32 µg/mL | Antibiotic MIC, Vancomycin (A. baumannii [1]; [4]): 64 µg/mL | Antibiotic MIC, Erythromycin (A. baumannii [1]; [5]): 2 µg/mL | Antibiotic MIC, Linezolid (A. baumannii [1]; [5]): 8 µg/mL | Antibiotic MIC, Vancomycin (A. baumannii [1]; [5]): 16 µg/mL | Antibiotic MIC, Erythromycin (A. baumannii [1]; [6]): 1 µg/mL | Antibiotic MIC, Linezolid (A. baumannii [1]; [6]): 2 µg/mL | Antibiotic MIC, Vancomycin (A. baumannii [1]; [6]): 4 µg/mL | Antibiotic MIC, Erythromycin (A. baumannii [1]; [7]): 0.125 µg/mL | Antibiotic MIC, Linezolid (A. baumannii [1]; [7]): 1 µg/mL | Antibiotic MIC, Vancomycin (A. baumannii [1]; [7]): 2 µg/mL | Antibiotic MIC, Erythromycin (A. baumannii [1]; [8]): 0 µg/mL | Antibiotic MIC, Linezolid (A. baumannii [1]; [8]): 0 µg/mL | Antibiotic MIC, Vancomycin (A. baumannii [1]; [8]): 0 µg/mL | Antibiotic MIC, Erythromycin (A. baumannii [1]; [9]): 0 µg/mL | Antibiotic MIC, Linezolid (A. baumannii [1]; [9]): 0 µg/mL | Antibiotic MIC, Vancomycin (A. baumannii [1]; [9]): 0 µg/mL | Antibiotic MIC, Erythromycin (A. baumannii [1]; [10]): 0 µg/mL | Antibiotic MIC, Linezolid (A. baumannii [1]; [10]): 0 µg/mL | Antibiotic MIC, Vancomycin (A. baumannii [1]; [10]): 0 µg/mL | Minimal inhibitory concentration MIC (A. baumannii [2]): 16 µg/mL (≈ 6.83 µM) | Peptide MIC, peptide alone (A. baumannii [2]): 16 µg/mL | Minimal inhibitory concentration MIC (MDRAB 12035): 32 µg/mL (≈ 13.7 µM) | Peptide MIC, peptide alone (MDRAB 12035): 32 µg/mL | Minimal inhibitory concentration MIC (S. typhimurium): 16 µg/mL (≈ 6.83 µM) | Antibacterial activity relative to PapMA-1, PapMA-2, PapMA-3 and PapMA-4 (gram-negative bacteria): same or higher | Minimal inhibitory concentration MIC (S. aureus): >128 µg/mL | Antibiotic MIC, Erythromycin (MDREC 1229; [11]): 64 µg/mL | Antibiotic MIC, Linezolid (MDREC 1229; [11]): 128 µg/mL | Antibiotic MIC, Vancomycin (MDREC 1229; [11]): >128 µg/mL | Antibiotic MIC, Erythromycin (MDREC 1229; [12]): 16 µg/mL | Antibiotic MIC, Linezolid (MDREC 1229; [12]): 32 µg/mL | Antibiotic MIC, Vancomycin (MDREC 1229; [12]): >128 µg/mL | Antibiotic MIC, Erythromycin (MDREC 1229; [13]): 4 µg/mL | Antibiotic MIC, Linezolid (MDREC 1229; [13]): 16 µg/mL | Antibiotic MIC, Vancomycin (MDREC 1229; [13]): 128 µg/mL | Antibiotic MIC, Erythromycin (MDREC 1229; [14]): 2 µg/mL | Antibiotic MIC, Linezolid (MDREC 1229; [14]): 8 µg/mL | Antibiotic MIC, Vancomycin (MDREC 1229; [14]): 16 µg/mL | Antibiotic MIC, Erythromycin (MDREC 1229; [15]): 1 µg/mL | Antibiotic MIC, Linezolid (MDREC 1229; [15]): 4 µg/mL | Antibiotic MIC, Vancomycin (MDREC 1229; [15]): 8 µg/mL | Antibiotic MIC, Erythromycin (MDREC 1229; [16]): 0.125 µg/mL | Antibiotic MIC, Linezolid (MDREC 1229; [16]): 2 µg/mL | Antibiotic MIC, Vancomycin (MDREC 1229; [16]): 2 µg/mL | Antibiotic MIC, Erythromycin (MDREC 1229; [17]): 0.0625 µg/mL | Antibiotic MIC, Linezolid (MDREC 1229; [17]): 1 µg/mL | Antibiotic MIC, Vancomycin (MDREC 1229; [17]): 1 µg/mL | Antibiotic MIC, Erythromycin (MDREC 1229; [18]): 0 µg/mL | Antibiotic MIC, Linezolid (MDREC 1229; [18]): 0 µg/mL | Antibiotic MIC, Vancomycin (MDREC 1229; [18]): 0 µg/mL
